Among the data in ChEMBL document CHEMBL5465560, “Selectivity Literature for EUbOPEN Chemogenomic Library” (2024) are % of control, % of inhibition and IC50 values, retold here.

Structures are written as SMILES.

The target of assay [1] is Tyrosine-protein kinase Srms (Homo sapiens) (UniProt Q9H3Y6). In words: Selectivity interaction (KinomeScan (DiscoverX)) EUB0001079a SRMS. As to conditions: at 1 µM.
Assay [2] addresses T1, NUAK family SNF1-like kinase 1 (Homo sapiens) (UniProt O60285).
T1 sequence (whole entry): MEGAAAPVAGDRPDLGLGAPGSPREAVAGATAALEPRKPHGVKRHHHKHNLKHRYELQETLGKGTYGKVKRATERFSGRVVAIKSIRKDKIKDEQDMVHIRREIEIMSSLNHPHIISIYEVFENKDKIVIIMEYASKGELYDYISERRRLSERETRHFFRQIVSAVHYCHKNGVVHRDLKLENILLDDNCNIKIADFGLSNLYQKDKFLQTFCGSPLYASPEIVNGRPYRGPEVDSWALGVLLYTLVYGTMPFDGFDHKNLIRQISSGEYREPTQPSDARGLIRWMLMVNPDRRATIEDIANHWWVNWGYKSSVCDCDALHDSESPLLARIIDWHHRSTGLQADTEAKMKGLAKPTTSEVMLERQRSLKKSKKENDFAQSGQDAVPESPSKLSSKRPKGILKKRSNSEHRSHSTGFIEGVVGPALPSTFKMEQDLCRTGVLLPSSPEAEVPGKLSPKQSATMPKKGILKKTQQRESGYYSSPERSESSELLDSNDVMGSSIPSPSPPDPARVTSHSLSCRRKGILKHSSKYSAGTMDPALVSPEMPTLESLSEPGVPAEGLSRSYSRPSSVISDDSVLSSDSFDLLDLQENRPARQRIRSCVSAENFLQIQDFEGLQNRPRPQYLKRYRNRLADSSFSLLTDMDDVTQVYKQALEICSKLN
Put plainly: Selectivity interaction (KinomeScan (DiscoverX)) EUB0000655a NUAK1. As to conditions: at 10 µM.

Assay [3] deals with Protein kinase C alpha type (Homo sapiens, UniProt P17252). In words: Selectivity interaction (Kinase screening (Upstate/Millipore)) EUB0000604a PRKCA.
In assay [4] the target is T2, Mitogen-activated protein kinase kinase kinase 6 (Homo sapiens) (UniProt O95382).
T2 sequence (whole entry): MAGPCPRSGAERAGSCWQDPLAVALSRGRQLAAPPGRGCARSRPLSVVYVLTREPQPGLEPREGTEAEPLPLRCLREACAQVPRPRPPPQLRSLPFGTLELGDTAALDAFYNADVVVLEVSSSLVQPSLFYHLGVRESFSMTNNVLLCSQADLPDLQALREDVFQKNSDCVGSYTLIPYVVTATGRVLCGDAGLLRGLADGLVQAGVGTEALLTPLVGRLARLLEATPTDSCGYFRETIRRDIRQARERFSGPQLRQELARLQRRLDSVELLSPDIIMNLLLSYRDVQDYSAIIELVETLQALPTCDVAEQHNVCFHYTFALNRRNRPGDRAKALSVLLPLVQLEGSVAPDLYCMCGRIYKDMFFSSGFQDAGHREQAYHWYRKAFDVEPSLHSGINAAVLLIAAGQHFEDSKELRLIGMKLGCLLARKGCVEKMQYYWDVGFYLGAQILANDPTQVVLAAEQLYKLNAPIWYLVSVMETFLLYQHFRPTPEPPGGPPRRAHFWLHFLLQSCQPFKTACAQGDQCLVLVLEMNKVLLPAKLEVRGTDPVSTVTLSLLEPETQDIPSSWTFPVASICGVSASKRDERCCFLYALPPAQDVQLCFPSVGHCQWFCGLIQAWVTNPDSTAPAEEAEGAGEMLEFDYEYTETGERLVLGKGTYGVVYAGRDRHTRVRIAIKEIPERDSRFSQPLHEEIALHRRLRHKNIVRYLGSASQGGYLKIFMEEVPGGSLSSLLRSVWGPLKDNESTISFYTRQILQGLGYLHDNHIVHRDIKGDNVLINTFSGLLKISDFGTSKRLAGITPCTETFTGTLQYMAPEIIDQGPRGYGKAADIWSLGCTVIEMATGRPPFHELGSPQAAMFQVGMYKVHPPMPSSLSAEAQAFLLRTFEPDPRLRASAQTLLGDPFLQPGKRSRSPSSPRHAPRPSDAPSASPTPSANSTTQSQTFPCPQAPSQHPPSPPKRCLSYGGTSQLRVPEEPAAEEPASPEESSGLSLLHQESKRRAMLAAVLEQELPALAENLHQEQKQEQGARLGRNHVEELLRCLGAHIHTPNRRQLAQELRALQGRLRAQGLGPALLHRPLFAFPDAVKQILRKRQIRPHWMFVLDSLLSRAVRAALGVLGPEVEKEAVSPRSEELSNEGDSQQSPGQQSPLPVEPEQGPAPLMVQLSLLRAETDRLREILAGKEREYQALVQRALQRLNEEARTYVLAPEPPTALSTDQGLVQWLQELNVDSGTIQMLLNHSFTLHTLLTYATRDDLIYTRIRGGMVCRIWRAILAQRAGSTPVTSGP
In words: Selectivity interaction (ActivX KiNativ screen (kinase selectivity in THP-1 cell lysates)) EUB0000639a MAP3K6. The format is subcellular. As to conditions: lysate, at 0.2 µM.

The target in assay [5] is Cyclin-dependent kinase 4/cyclin D1 (Homo sapiens, UniProt P11802).
The target of assay [6] is T3, TGF-beta receptor type-1 (Homo sapiens) (UniProt P36897).
T3 sequence (whole entry): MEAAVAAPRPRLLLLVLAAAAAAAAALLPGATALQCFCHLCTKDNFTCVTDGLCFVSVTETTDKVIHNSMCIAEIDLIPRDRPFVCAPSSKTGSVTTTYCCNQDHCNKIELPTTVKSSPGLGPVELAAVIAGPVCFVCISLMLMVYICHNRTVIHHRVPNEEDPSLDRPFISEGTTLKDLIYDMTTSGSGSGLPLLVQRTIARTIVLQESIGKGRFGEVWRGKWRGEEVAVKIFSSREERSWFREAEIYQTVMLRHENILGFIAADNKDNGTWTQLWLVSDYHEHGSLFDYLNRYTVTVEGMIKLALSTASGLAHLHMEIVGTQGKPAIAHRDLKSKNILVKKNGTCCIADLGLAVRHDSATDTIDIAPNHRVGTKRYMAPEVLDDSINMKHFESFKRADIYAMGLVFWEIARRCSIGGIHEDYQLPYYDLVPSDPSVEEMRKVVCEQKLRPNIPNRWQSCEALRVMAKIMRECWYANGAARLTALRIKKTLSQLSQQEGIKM
In words: Selectivity interaction (KinomeScan (DiscoverX)) EUB0000595a TGFBR1. As to conditions: at 10 µM.

Assay [7] has as its target Diacylglycerol kinase beta (Homo sapiens) (UniProt Q9Y6T7). Put plainly: Selectivity interaction (Kinase panel (literature)) EUB0001199aCl DGKB. As to conditions: at 1 µM.

Chain of Cyclin-dependent kinase 4/cyclin D1 (P11802 whole entry): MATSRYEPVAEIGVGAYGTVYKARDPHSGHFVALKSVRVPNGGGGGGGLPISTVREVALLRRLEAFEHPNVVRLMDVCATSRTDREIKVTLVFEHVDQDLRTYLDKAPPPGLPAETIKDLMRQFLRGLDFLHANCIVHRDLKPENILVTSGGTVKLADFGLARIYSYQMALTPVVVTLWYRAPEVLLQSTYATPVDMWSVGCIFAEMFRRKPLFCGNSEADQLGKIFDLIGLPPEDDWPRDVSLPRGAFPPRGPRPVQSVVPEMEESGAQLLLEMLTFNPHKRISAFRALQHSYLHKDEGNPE
Chain of Cyclin-dependent kinase 4/cyclin D1 (P24385 whole entry, further chain): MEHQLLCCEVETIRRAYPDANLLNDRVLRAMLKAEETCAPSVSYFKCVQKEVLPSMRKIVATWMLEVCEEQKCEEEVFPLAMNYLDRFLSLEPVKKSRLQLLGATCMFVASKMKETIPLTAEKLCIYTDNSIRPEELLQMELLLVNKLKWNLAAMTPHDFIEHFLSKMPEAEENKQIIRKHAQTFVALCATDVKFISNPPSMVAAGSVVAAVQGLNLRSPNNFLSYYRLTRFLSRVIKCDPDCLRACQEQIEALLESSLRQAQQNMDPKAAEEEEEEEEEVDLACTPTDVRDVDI
Chain of Tyrosine-protein kinase Srms (Homo sapiens) (Q9H3Y6 whole entry): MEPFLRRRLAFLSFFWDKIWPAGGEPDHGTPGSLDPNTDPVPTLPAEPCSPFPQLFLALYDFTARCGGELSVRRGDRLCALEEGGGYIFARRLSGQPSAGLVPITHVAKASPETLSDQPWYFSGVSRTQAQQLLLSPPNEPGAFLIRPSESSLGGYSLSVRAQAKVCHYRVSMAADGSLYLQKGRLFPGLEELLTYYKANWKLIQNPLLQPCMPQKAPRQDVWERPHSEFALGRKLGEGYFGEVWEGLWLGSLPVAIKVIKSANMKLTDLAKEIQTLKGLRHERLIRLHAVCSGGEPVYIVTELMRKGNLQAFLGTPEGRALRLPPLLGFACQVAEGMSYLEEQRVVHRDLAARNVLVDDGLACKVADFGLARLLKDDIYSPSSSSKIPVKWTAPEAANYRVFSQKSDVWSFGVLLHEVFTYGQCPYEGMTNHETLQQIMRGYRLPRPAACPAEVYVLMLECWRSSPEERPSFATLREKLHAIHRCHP

In assay [1], `Nc1cnc(N2CCc3cc(S(=O)(=O)Nc4c(F)cc(Cl)cc4F)cc(N4CCCC4=O)c32)nc1` [TP-020n] gave a % of control of 88%.
Molecule `CN(C)CCOc1ccc(-c2nc(-c3ccncc3)c(-c3ccc4c(c3)CC/C4=N\O)[nH]2)cc1` displayed a % of control in assay [2] of 100%.
For `Cc1cnc(Nc2ccc(F)cc2Cl)nc1-c1c[nH]c(C(=O)N[C@H](CO)c2cccc(Cl)c2)c1`, the % of inhibition in assay [3] was 12%.
As for `CC[C@@H]1[C@H](F)C(=O)N[C@@H]1COc1nccc2cc(C(N)=O)c(OC)cc12` [ZIMLOVISERTIB], the % of inhibition in assay [4] was -13.5%.
Broadly, the IC50 is the concentration that gives 50% inhibition. Lower therefore signals higher potency. With `CCc1cccc(CC)c1NC(=O)c1nn(C)c2c1CCc1cnc(Nc3ccc(C(=O)NC4CCN(C)CC4)cc3OC(F)(F)F)nc1-2`, the IC50 in assay [5] was > 10 µM.
`COCC(=O)NC/C=C/c1ccc2ncnc(Nc3ccc(Oc4ccc(C)nc4)c(C)c3)c2c1` [CP-724714] returned a % of control in assay [6] of 100%.
With `CN1Cc2nccc(-c3cn(C)nc3-c3ccc(F)cc3)c2C1=O`, the % of inhibition in assay [7] is -9%.
